# Patent publication US20100298141A1, “SUBSTITUTED PYRIDINE N-OXIDE HERBICIDES” (E. I. DU PONT DE NEMOURS AND COMPANY, priority 2007, published 2010)
# Columns and labels:
# [1] = tested on: crabgrass; test: Test A pre-/postemergence greenhouse test; assay type: in vivo, Digitaria sanguinalis; details: for Plant response rating, Crabgrass, Large: 0 to 100 scale where 0 is no effect and 100 is complete control; for Crabgrass, Large plant response rating: 0 to 100 scale
# Outline: (§1)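 Visual injury ratings against untreated controls, taken roughly ten days after treatment in greenhouse. Plants were sprayed postemergence at one- to two-leaf stage (2–10 cm tall); at the same time, seeded loam/sand soil received a directed preemergence spray. Formulation: non-phytotoxic solvent mixture with surfactant.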
# [2] = tested on: giant foxtail; test: Test A pre-/postemergence greenhouse test; assay type: in vivo, Setaria faberi; details: for Plant response rating, Foxtail, Giant: 0 to 100 scale where 0 is no effect and 100 is complete control; for Foxtail, Giant plant response rating: 0 to 100 scale
# Outline: as §1
# [3] = tested on: morningglory; test: Test A pre-/postemergence greenhouse test; assay type: in vivo, Ipomoea spp.; details: for Plant response rating, Morningglory: 0 to 100 scale where 0 is no effect and 100 is complete control; for Morningglory plant response rating: 0 to 100 scale
# Outline: as §1
# [4] = tested on: wheat; test: Test A pre-/postemergence greenhouse test; assay type: in vivo, Triticum aestivum; details: for Plant response rating, Wheat: 0 to 100 scale where 0 is no effect and 100 is complete control; for Wheat plant response rating: 0 to 100 scale
# Outline: as §1
# [5] = tested on: corn; test: Test A pre-/postemergence greenhouse test; assay type: in vivo, Zea mays; details: for Plant response rating, Corn: 0 to 100 scale where 0 is no effect and 100 is complete control; for Corn plant response rating: 0 to 100 scale
# Outline: as §1
# [6] = tested on: Italian ryegrass; test: Test C pre-/postemergence test; assay type: in vivo, Lolium multiflorum; details: for Plant response rating, Ryegrass, Italian: 31 g ai/ha, scale 0 to 100 (0 no effect, 100 complete control)
# Outline: (§2)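 Compounds in a non-phytotoxic solvent with surfactant applied preemergence to seeded pots and, at the same time, postemergence to plants 2–18 cm tall (1- to 4-leaf stage). Paddy tests: pots flooded to 3 cm, compound applied into the water, depth held throughout.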
# [7] = tested on: wheat; test: Test C pre-/postemergence test; assay type: in vivo, Triticum aestivum; details: for Plant response rating, Wheat: 31 g ai/ha, scale 0 to 100 (0 no effect, 100 complete control)
# Outline: as §2
# [8] = tested on: catchweed bedstraw; test: Test C pre-/postemergence test; assay type: in vivo, Galium aparine
# Outline: as §2
# [9] = tested on: bermudagrass; test: Test C pre-/postemergence test; assay type: in vivo, Cynodon dactylon; details: for Plant response rating, Bermudagrass: 31 g ai/ha
# Outline: as §2
# [10] = tested on: Goosegrass; test: Test C pre-/postemergence test; assay type: in vivo, Eleusin indica; details: for Plant response rating, Goosegrass: 31 g ai/ha, scale 0 to 100 (0 no effect, 100 complete control)
# Outline: as §2
# [11] = tested on: morningglory; test: Test C pre-/postemergence test; assay type: in vivo, Ipomoea coccinea; details: for Plant response rating, Morningglory: 31 g ai/ha, scale 0 to 100 (0 no effect, 100 complete control)
# Outline: as §2
# [12] = tested on: yellow nutsedge; test: Test C pre-/postemergence test; assay type: in vivo, Cyperus esculentus; details: for Plant response rating, Nutsedge, Yellow: 31 g ai/ha, scale 0 to 100 (0 no effect, 100 complete control)
# Outline: as §2
# [13] = tested on: pigweed; test: Test C pre-/postemergence test; assay type: in vivo, Amaranthus retroflexus; details: for Plant response rating, Pigweed: 31 g ai/ha, scale 0 to 100 (0 no effect, 100 complete control)
# Outline: as §2
# [14] = tested on: soybean; test: Test C pre-/postemergence test; assay type: in vivo, Glycine max; details: for Plant response rating, Soybean: 31 g ai/ha, scale 0 to 100 (0 no effect, 100 complete control)
# Outline: as §2
# [15] = tested on: common (oilseed) sunflower; test: Test C pre-/postemergence test; assay type: in vivo, Helianthus annuus; details: for Plant response rating, Sunflower: 31 g ai/ha, scale 0 to 100 (0 no effect, 100 complete control)
# Outline: as §2
# [16] = tested on: umbrella sedge; test: Test C flooded paddy test; assay type: in vivo, Cyperus difformis; details: Flood
# Outline: (§3)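 Test compounds are applied straight into paddy water held 3 cm above the soil surface, with that flood maintained for the whole test. After 13 to 15 days in the greenhouse, each species is scored visually relative to controls.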
# [17] = tested on: barnyardgrass; test: Test C flooded paddy test; assay type: in vivo, Echinochloa crus-galli; details: Flood
# Outline: as §3
# [18] = Postemergence, 500 g ai/ha, 0 is no effect, 100 is complete control
# [19] = Preemergence, 125 g ai/ha, 0 no effect, 100 complete control
# [20] = Preemergence, 500 g ai/ha, 0 no effect, 100 complete control
# [21] = 62 g ai/ha, Preemergence, scale 0 to 100
# [22] = 125 g ai/ha, preemergence, scale 0 (no effect) to 100 (complete control)
# [23] = preemergence, 250 g ai/ha, scale 0 (no effect) to 100 (complete control)
# [24] = 62 g ai/ha, Preemergence, scale 0 to 100 (0 no effect, 100 complete control)
# [25] = Preemergence, scale 0 to 100 (0 no effect, 100 complete control)
# [26] = 62 g ai/ha, scale 0 to 100 (0 no effect, 100 complete control)
# [27] = 250 g ai/ha, scale 0 to 100, 0 no effect, 100 complete control, 13 to 15 days
structure (smiles),measurement,setting,value
CC(Oc1c(C[S+]([O-])c2ccc(Cl)c[n+]2[O-])c(C(F)(F)F)nn1C)C(F)(F)F (centres unmarked) [Compound 87],"Plant response rating, Crabgrass, Large","[1]; Postemergence, 125 g ai/ha",80
same,"Crabgrass, Large plant response rating",[1]; [18],90
same,"Crabgrass, Large plant response rating",[1]; [19],90
same,"Plant response rating, Crabgrass, Large","[1]; Preemergence, 500 g ai/ha",100
same,"Plant response rating, Foxtail, Giant","[2]; Postemergence, 125 g ai/ha",90
same,"Foxtail, Giant plant response rating",[2]; [18],90
same,"Foxtail, Giant plant response rating",[2]; [19],90
same,"Plant response rating, Foxtail, Giant","[2]; Preemergence, 500 g ai/ha",100
same,"Plant response rating, Morningglory","[3]; Postemergence, 125 g ai/ha",40
same,Morningglory plant response rating,[3]; [18],100
same,Morningglory plant response rating,[3]; [19],20
same,"Plant response rating, Morningglory","[3]; Preemergence, 500 g ai/ha",100
same,"Plant response rating, Wheat","[4]; Postemergence, 125 g ai/ha",60
same,Wheat plant response rating,[4]; [18],70
same,Wheat plant response rating,[4]; [19],70
same,Wheat plant response rating,[4]; [20],100
same,"Plant response rating, Corn","[5]; Postemergence, 125 g ai/ha",60
same,Corn plant response rating,[5]; [18],70
same,Corn plant response rating,[5]; [19],40
same,"Plant response rating, Corn","[5]; Preemergence, 500 g ai/ha",90
same,"Ryegrass, Italian plant response rating",[6]; [21],95
same,"Ryegrass, Italian plant response rating",[6]; [22],100
same,"Plant response rating, Ryegrass, Italian",[6]; Preemergence,95
same,"Ryegrass, Italian plant response rating",[6]; [23],100
same,Wheat plant response rating,[7]; [21],60
same,Wheat plant response rating,[7]; [22],85
same,"Plant response rating, Wheat",[7]; Preemergence,30
same,Wheat plant response rating,[7]; [23],85
same,Galium plant response rating,[8]; [21],80
same,Galium plant response rating,[8]; [22],100
same,"Plant response rating, Galium","[8]; Preemergence, 31 g ai/ha, scale 0 to 100 (0 no effect, 100 complete control)",70
same,Galium plant response rating,[8]; [23],100
same,Bermudagrass plant response rating,[9]; [24],100
same,Bermudagrass plant response rating,[9]; [22],100
same,"Plant response rating, Bermudagrass",[9]; [25],100
same,Bermudagrass plant response rating,[9]; [23],100
same,Goosegrass plant response rating,[10]; [21],100
same,Goosegrass plant response rating,[10]; [22],100
same,"Plant response rating, Goosegrass",[10]; Preemergence,98
same,Goosegrass plant response rating,[10]; [23],100
same,Morningglory plant response rating,[11]; [21],80
same,Morningglory plant response rating,[11]; [22],80
same,"Plant response rating, Morningglory",[11]; Preemergence,60
same,Morningglory plant response rating,[11]; [23],95
same,"Nutsedge, Yellow plant response rating",[12]; [21],50
same,"Nutsedge, Yellow plant response rating",[12]; [22],80
same,"Plant response rating, Nutsedge, Yellow",[12]; Preemergence,50
same,"Nutsedge, Yellow plant response rating",[12]; [23],100
same,Pigweed plant response rating,[13]; [21],75
same,Pigweed plant response rating,[13]; [22],95
same,"Plant response rating, Pigweed",[13]; Preemergence,10
same,Pigweed plant response rating,[13]; [23],100
same,Soybean plant response rating,[14]; [21],65
same,Soybean plant response rating,[14]; [22],80
same,"Plant response rating, Soybean",[14]; Preemergence,65
same,Soybean plant response rating,[14]; [23],80
same,Sunflower plant response rating,[15]; [21],50
same,Sunflower plant response rating,[15]; [22],55
same,"Plant response rating, Sunflower",[15]; Preemergence,40
same,Sunflower plant response rating,[15]; [23],70
same,"Plant response rating, Sedge, Umbrella",[16]; [26],60
same,"Plant response rating, Sedge, Umbrella",[16]; [27],95
same,"Plant response rating, Barnyardgrass",[17]; [26],30
same,"Plant response rating, Barnyardgrass",[17]; [27],90
Cn1nc(C(F)(F)C(F)(F)F)c(C[S+]([O-])c2ccc(Cl)c[n+]2[O-])c1OCC(F)(F)F (centres unmarked) [Compound 92],"Plant response rating, Crabgrass, Large","[1]; Postemergence, 125 g ai/ha",70
same,"Crabgrass, Large plant response rating",[1]; [18],90
same,"Crabgrass, Large plant response rating",[1]; [19],80
same,"Plant response rating, Crabgrass, Large","[1]; Preemergence, 500 g ai/ha",90
same,"Plant response rating, Foxtail, Giant","[2]; Postemergence, 125 g ai/ha",80
same,"Foxtail, Giant plant response rating",[2]; [18],90
same,"Foxtail, Giant plant response rating",[2]; [19],90
same,"Plant response rating, Foxtail, Giant","[2]; Preemergence, 500 g ai/ha",100
same,"Plant response rating, Morningglory","[3]; Postemergence, 125 g ai/ha",70
same,Morningglory plant response rating,[3]; [18],100
same,Morningglory plant response rating,[3]; [19],100
same,"Plant response rating, Morningglory","[3]; Preemergence, 500 g ai/ha",100
same,"Plant response rating, Wheat","[4]; Postemergence, 125 g ai/ha",70
same,Wheat plant response rating,[4]; [18],70
same,Wheat plant response rating,[4]; [19],70
same,Wheat plant response rating,[4]; [20],90
same,"Plant response rating, Corn","[5]; Postemergence, 125 g ai/ha",70
same,Corn plant response rating,[5]; [18],80
same,Corn plant response rating,[5]; [19],60
same,"Plant response rating, Corn","[5]; Preemergence, 500 g ai/ha",90
same,"Ryegrass, Italian plant response rating",[6]; [21],80
same,"Ryegrass, Italian plant response rating",[6]; [22],100
same,"Plant response rating, Ryegrass, Italian",[6]; Preemergence,60
same,"Ryegrass, Italian plant response rating",[6]; [23],100
same,Wheat plant response rating,[7]; [21],65
same,Wheat plant response rating,[7]; [22],90
same,"Plant response rating, Wheat",[7]; Preemergence,35
same,Wheat plant response rating,[7]; [23],95
same,Galium plant response rating,[8]; [21],80
same,Galium plant response rating,[8]; [22],95
same,Galium plant response rating,[8]; [23],100
same,Bermudagrass plant response rating,[9]; [24],100
same,Bermudagrass plant response rating,[9]; [22],100
same,"Plant response rating, Bermudagrass",[9]; [25],100
same,Bermudagrass plant response rating,[9]; [23],100
same,Goosegrass plant response rating,[10]; [21],90
same,Goosegrass plant response rating,[10]; [22],90
same,"Plant response rating, Goosegrass",[10]; Preemergence,90
same,Goosegrass plant response rating,[10]; [23],100
same,Morningglory plant response rating,[11]; [21],80
same,Morningglory plant response rating,[11]; [22],85
same,"Plant response rating, Morningglory",[11]; Preemergence,0
same,Morningglory plant response rating,[11]; [23],100
same,"Nutsedge, Yellow plant response rating",[12]; [21],90
same,"Nutsedge, Yellow plant response rating",[12]; [22],90
same,"Plant response rating, Nutsedge, Yellow",[12]; Preemergence,90
same,"Nutsedge, Yellow plant response rating",[12]; [23],100
same,Pigweed plant response rating,[13]; [21],100
same,Pigweed plant response rating,[13]; [22],100
same,"Plant response rating, Pigweed",[13]; Preemergence,80
same,Pigweed plant response rating,[13]; [23],100
same,"Plant response rating, Soybean",[14]; Preemergence,0
same,Soybean plant response rating,[14]; [23],80
same,Sunflower plant response rating,[15]; [21],35
same,Sunflower plant response rating,[15]; [22],70
same,"Plant response rating, Sunflower",[15]; Preemergence,0
same,Sunflower plant response rating,[15]; [23],85
same,"Plant response rating, Sedge, Umbrella",[16]; [26],20
same,"Plant response rating, Sedge, Umbrella",[16]; [27],100
same,"Plant response rating, Barnyardgrass",[17]; [26],0
same,"Plant response rating, Barnyardgrass",[17]; [27],75
